What was measured:
[1] = system: AR42J cells; assay: Cell necrosis assay in AR42J cells; type: cell-based; conditions: FK506 24 μM, CsA 16 μM
Description: (§1) Acinar cells were incubated in a 48-well plate with 50 μg/ml of propidium iodide (PI) for 30 min prior to addition of RC. Fluorescence was measured at 536 nm excitation and 617 nm emission wavelengths over time a time course of up to 6 hr. Fluorescence was measured after cell lysis with 0.5% Triton-X 100 was used to normalize the results relative to total DNA.

[2] = system: PEP model in mice; conditions: in vivo model of PEP in mice; earlier work; cited from earlier work
[3] = system: PEP model in mice; assay: Intra-ductal RC infusion PEP model in mice: histological severity, serum amylase; type: in vivo, mouse
From the text: The procedure for retrograde infusion into the CBD and pancreatic duct has been described before^14. Briefly, Swiss Webster mice were anesthetized with isoflurane. A midline incision was made to reveal the abdominal cavity. The duodenum was flipped to reveal its distal side and held in place by ligatures. […] needle was inserted through the anti-mesenteric aspect of the duodenum to cannulate the CBD. A small bull dog clamp was applied to the distal CBD (near the duodenum) to prevent back flow of the infusate into the duodenal lumen and to hold the cannula in place. A larger bull dog clamp was applied to the proximal CBD (near the liver) to prevent infusion into the liver and thus to direct flow to the pancreatic duct. Total volumes of 50-100 μl of iohexol, iopamidol, or normal saline (NS) were infused at 10-20 μl per min for 5 min using a P33 perfusion pump (Harvard Apparatus, Holliston, Mass.). Upon completion of the infusion, the bull dog clamps were released. The exterior abdominal wound was closed using 7 mm wound clips, and a single injection of buprenorphine (0.075 mg/kg) was given immediately after the surgery. Mice recovered on a heating pad for 30 min after the procedure. They were given free access to food and water after the surgery. The pancreas, duodenum, and spleen were fixed at room temperature for 24 hr in 4% paraformaldehyde. Paraffin-embedded sections were stained with hematoxylin an eosin (HE) and graded using a 20× objective over 10 separate fields in a blinded fashion. Pancreas tissue was graded for edema, inflammatory infiltrate, and necrosis as described by Wildi et al.^67. Whole blood samples were centrifuged at 1500×g for 5 min at 4° C. Serum amylase was measured using a Phadebas kit (Amersham Pharmacia, Rochester N.Y.) as previously described^68.

[4] = system: NF-κB; assay: NF-κB-luciferase activity assay in AR42J cells; type: cell-based; conditions: FK506 24 μM, CsA 16 μM; P<0.05
Description: AR42J cells were differentiated towards an acinar phenotype by administering dexamethasone (100 nM) for 48-72 hr^17. AR42J cells were infected with Ad-NF-κB luciferase 16 h prior to stimulation using a previously described method^12. Following a wash with DMEM/F12 medium, acinar cells were evenly distributed in a 48-well plate and incubated for 30 min at 37° C. They were incubated with RC at varying concentrations and times. NF-κB-luciferase was measured using a commercially available luciferase assay (Promega, Madison, Wis.). Briefly, cells were spun at 1,000 rpm for 5 min, washed with PBS, and lysed using reporter lysis 5× buffer (Promega, catalog no. E397A). Samples were vortexed and spun at 12,000×g for 2 min. The supernatant was plated, and luminescence was measured using a Synergy H1 plate reader (BioTek, Winooski, Vt.) and normalized to […].

[5] = Dissolution in ready-to-use iohexol formulation; type: physicochemical; conditions: FK506 1 μM, CsA 10 μM
[6] = system: primary acinar cells; assay: Cell necrosis assay (propidium iodide uptake) in primary acinar cells; type: cell-based, mouse; conditions: 6 hr incubation; U73122 5 μM, 2-APB 100 μM, BAPTA 64 μM, IKK-2 20 μM, FK506 24 μM, CsA 16 μM
Description: as §1

[7] = system: calcineurin; assay: NFAT-luciferase activity assay in AR42J cells; type: cell-based; conditions: pretreatment; FK506 24 μM, CsA 16 μM, U73122 5 μM, 2-APB 100 μM, BAPTA 64 μM
Description: (§2) Acinar cells were infected with Ad-NFAT-luciferase following a previously described procedure^10, 15, 16. The construct includes a luciferase gene placed downstream of an IL-4 promoter which contains nine tandem NFAT binding sites^10. Acinar cells were incubated with the NFAT-driven luciferase adenovirus for 1.5 hr prior to stimulation. All of the stated inhibitors were added for 30 min prior to stimulation with RC. NFAT-luciferase was measured using the luciferase assay system. Briefly, cells were spun at 1,000 rpm for 5 min, washed with PBS, and lysed using reporter lysis 5× buffer (Promega #E397A, Madison, Wis.). Samples were vortexed and spun at 12,000 g for 2 min. Supernatant was plated, and luminescence was measured using a Synergy H1 plate reader (BioTek, Winooski, Vt.) and normalized to total protein.

[8] = system: pancreatic NF-κB; assay: Imaging pancreatic NF-κB bioluminescence in vivo; set-up: species or system mouse; conditions: FK506 treatment
Description: An AAV6-NF-κB-luciferase reporter was constructed, expanded in HEK293 cells, and purified as previously described^18-20, 39. A volume of 100 μl of virus (10^12 GCP/ml) was infused into the pancreaticobiliary duct at a rate of 10 μl/min using the same technique of RC infusion described above and recently published^21, 39. After a 5-week recovery from the surgery, mice underwent PEP induction with or without FK506 treatment. At varying time points after the surgery, ranging from 2 to 36 hr, bioluminescence signals were obtained by first giving a subcutaneous injection of luciferin (150 μg/g body weight) in the scruff of the neck 15 min before the start of imaging. The mice were briefly anesthetized with isoflurane and placed in the supine position in a bioluminescent imaging chamber (IVIS spectrum imager; Perkin Elmer, Waltham, Mass.) for 3-10 min. Average pixel intensity was measured from a pancreatic region of interest (in the upper abdomen). Raw time points from each mouse were normalized to its individual baseline intensity at time zero.

[9] = system: calcineurin; assay: NFAT-luciferase activity assay in mouse primary acinar cells; type: cell-based; conditions: 30 min pre-treatment; FK506 24 μM, CsA 16 μM, BAPTA-AM 64 μM
Description: as §2

[10] = system: pancreatic acinar cells; assay: ATP level measurements in acinar cells; type: cell-based, mouse; conditions: RC 12% for 3.5 hr
Description: Following isolation, pancreatic acinar cells were cultured in DMEM/F12 Medium (0.5 ml/well of a 48-well plate) at 37° C. water bath and treated with RC±FK506. Cells were collected at indicated time points and lysed in 100 lysis buffer (100 mM Tris pH 7.75, 4 mM EDTA). ATP levels were measured from 20 μl aliquots of acinar cell lysates using the ENLITEN luciferase/luciferin reagent (Promega catalog no. FF2021).

dissolution in the ready-to-use iohexol formulation [5]: easily dissolved
SMILES: C=CC[C@@H]1/C=C(\C)C[C@H](C)C[C@H](OC)[C@H]2O[C@@](O)(C(=O)C(=O)N3CCCC[C@H]3C(=O)O[C@H](/C(C)=C/[C@@H]3CC[C@@H](O)[C@H](OC)C3)[C@H](C)[C@@H](O)CC1=O)[C@H](C)C[C@@H]2OC [FK506, tacrolimus]
effect on RC (12%)-induced acinar cell necrosis [1]: prevented
effect of systemic frequent prophylactic dosing on PEP [2]: prevented PEP
effect when given after PEP induction ([3]; FK506 1 mg/kg after the infusion of RC): reduces pancreatic inflammation
serum amylase ([3]; FK506 1 mg/kg intraperitoneal 1 hr prior and 2.5, 5.5, 12 hr after RC infusion): reduced down to the level of the NS sham condition
histological severity of the pancreas following pancreatitis ([3]; FK506 1 mg/kg intraperitoneal 1 hr prior and 2.5, 5.5, 12 hr after RC infusion, 24 hr): prevented
effect of FK506 compared with therapeutic indomethacin on RC-induced pancreatitis ([3]; FK506 1 mg/kg, indomethacin 7 mg/kg IP after RC infusion): as robust
reduction of RC-induced NF-κB [4]: 73%
effect on RC (12%)-induced acinar cell injury (PI uptake) [6]: prevented
effect on RC (6%)-induced NFAT-luciferase activity [7]: prevented
effect on RC-induced pancreatic NF-κB [8]: markedly blunted
effect on RC-induced rise in NFAT-luciferase [9]: largely prevented
effect on RC-induced ATP depletion [10]: failed to prevent ATP depletion

Reference: patent US20190314345A1, “CALCINEURIN INHIBITOR AND NON-STEROIDAL ANTI-INFLAMMATORY DRUG TO REDUCE RISK OF POST-IMAGING PANCREATITIS” (UNIVERSITY OF PITTSBURGH - OF THE COMMONWEALTH SYSTEM OF …, priority 2016, published 2019)
